Data taken from patent US8226943B2, “Antibodies to notch receptors” (OncoMed Pharmaceuticals, Inc., priority 2008, dated 2012).

Key:
[1] = molecular target: T1, human Notch1 with residues 382-386 mutated to the corresponding human Notch2 residues (Homo sapiens, UniProt P46531, E383K/N382H/N386L/S385A); test: FACS binding to mutant human Notch1 carrying Notch2 residues; settings: HEK 293 transiently transfected
T1 construct: several point mutants were created within full-length Notch1; expressed in transfected cells; host or cells: HEK 293, transient, co-transfected with GFP
T1 sequence (P46531 19-2555 N382H/E383K/S385A/N386L): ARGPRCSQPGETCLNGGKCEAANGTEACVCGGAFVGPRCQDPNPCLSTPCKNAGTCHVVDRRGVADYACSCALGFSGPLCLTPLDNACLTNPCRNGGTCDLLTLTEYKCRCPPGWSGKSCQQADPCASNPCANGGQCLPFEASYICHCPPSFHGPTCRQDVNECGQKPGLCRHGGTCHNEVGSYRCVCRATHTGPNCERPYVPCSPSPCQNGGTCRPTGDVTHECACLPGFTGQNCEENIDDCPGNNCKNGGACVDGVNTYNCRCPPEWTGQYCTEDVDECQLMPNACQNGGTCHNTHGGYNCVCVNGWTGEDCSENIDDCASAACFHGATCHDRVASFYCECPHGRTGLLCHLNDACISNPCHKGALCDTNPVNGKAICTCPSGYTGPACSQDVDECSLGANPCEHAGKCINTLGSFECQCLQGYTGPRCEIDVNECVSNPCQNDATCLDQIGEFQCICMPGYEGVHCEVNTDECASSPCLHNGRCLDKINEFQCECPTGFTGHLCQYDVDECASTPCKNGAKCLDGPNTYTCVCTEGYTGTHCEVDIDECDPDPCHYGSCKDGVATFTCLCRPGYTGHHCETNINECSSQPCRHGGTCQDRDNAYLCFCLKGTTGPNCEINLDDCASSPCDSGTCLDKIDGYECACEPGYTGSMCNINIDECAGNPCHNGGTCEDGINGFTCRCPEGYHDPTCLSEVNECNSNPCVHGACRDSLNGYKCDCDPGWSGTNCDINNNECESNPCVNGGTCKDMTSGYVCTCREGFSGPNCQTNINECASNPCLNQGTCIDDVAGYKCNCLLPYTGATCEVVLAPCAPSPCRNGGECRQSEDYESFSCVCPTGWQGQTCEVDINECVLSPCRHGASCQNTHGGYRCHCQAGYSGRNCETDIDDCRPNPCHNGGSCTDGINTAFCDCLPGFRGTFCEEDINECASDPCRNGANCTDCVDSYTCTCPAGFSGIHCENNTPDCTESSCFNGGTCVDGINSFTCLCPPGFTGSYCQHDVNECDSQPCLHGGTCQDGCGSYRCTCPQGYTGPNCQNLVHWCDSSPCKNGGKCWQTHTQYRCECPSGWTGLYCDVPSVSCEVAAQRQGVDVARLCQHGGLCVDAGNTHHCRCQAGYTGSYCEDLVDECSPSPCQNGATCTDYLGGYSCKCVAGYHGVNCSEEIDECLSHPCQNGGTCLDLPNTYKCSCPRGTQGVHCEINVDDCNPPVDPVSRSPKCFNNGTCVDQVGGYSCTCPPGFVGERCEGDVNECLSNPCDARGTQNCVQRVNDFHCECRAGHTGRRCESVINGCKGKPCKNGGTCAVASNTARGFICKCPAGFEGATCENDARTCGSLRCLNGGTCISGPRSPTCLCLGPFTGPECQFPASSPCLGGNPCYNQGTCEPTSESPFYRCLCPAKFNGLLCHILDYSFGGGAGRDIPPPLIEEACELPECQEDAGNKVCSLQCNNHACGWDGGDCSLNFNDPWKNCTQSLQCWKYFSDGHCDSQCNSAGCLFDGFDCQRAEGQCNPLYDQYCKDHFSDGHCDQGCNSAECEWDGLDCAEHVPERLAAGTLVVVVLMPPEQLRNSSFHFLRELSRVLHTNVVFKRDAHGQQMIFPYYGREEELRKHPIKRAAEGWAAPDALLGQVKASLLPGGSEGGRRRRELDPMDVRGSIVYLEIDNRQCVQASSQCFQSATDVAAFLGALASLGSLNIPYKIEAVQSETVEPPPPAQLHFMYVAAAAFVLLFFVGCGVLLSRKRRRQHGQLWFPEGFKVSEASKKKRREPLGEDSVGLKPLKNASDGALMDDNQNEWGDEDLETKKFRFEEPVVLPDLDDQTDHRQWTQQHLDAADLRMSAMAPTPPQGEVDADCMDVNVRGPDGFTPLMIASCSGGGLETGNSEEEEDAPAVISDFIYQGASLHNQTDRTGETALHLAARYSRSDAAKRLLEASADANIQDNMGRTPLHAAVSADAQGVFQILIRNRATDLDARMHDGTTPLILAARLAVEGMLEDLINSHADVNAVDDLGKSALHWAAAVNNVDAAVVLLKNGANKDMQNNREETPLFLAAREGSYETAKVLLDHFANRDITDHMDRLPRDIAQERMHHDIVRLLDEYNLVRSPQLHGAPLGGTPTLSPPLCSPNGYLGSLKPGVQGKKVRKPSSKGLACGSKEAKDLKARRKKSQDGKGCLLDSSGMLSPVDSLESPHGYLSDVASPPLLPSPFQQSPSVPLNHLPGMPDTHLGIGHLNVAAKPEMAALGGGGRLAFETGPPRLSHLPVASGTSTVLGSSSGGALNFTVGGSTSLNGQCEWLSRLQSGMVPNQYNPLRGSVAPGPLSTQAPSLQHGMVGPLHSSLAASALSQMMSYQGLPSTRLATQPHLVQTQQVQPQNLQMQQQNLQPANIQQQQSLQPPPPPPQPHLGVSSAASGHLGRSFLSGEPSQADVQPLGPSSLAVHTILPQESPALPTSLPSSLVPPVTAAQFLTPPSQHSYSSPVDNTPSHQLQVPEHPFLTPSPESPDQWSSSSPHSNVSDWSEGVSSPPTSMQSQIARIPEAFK
Procedure: A comparison analysis of the EGF 10 regions of human Notch1, Notch2, and Notch4 and the EGF 9 region of human Notch3 (the equivalent of EGF 10 in the other Notch receptors) was performed to determine likely binding sites for 59R1 (FIG. 14A). As a result of the analysis, several point mutants were created within full-length Notch2, converting residues within EGF 10 to the corresponding amino acids in human Notch 1. Also, conversely, point mutations were made in hNotch1 EGF 10 converting residues to the corresponding hN2 residues. Mutants in full-length Notch sequences were generated by QuikChange® mutagenesis (Stratagene) and verified by sequencing. Binding to the mutants was determined by FACS analysis (FIGS. 14B and 14C). 59R1 was detected by PE-conjugated goat anti-human Fc gamma specific antibody (Jackson Immunochemicals, #109-116-170). […] The corresponding residues in hNotch3 are histidine 361, alanine 364, and isoleucine 365.
The binding epitope of 59R5 was determined. As was described in Example 3 for analysis of antibody 59R1, several point mutants were created within full-length Notch1, converting residues within EGF10 to the corresponding amino acids in human Notch 2. […] 59R1 and 59R5 were detected by PE-conjugated goat anti-human Fc gamma specific antibody (Jackson Immunochemicals, #109-116-170). […]

[2] = test system: PN8 pancreatic tumor cells; test: PN8 pancreatic tumor xenograft growth; type: in vivo, NOD/SCID mice; settings: for PN8 Tumor vol relative to the control group: combination with gemcitabine, control is gemcitabine alone, antibody 15 mg/kg once per week
Procedure: The 59R1 IgG2 antibody was also tested in vivo in the breast tumor xenograft lines OMP-B34, OMP-B39, OMP-B44, PE13, and UM-T1, the pancreas tumor xenograft line OMP-PN8, and the colon tumor xenograft line OMP-C8. These tumor xenograft lines were established by adhering to procedures described in Al-Hajj et al., 2003, Proc. Natl. Acad. Sci. USA, 100:3983-3988. Female NOD/SCID immuno-compromised mice 7-10 weeks old were used for the establishment of the breast tumor xenografts and male NOD/SCID mice were used for the OMP-Pn8 and OMP-C8 tumor-models (Harlan, Indianapolis, Ind.). The 59R1 IgG2 antibody was also tested in vivo in a Colo-205 colon tumor xenograft model. Female immunodeficient bg/nu XID mice on a Swiss CD-1 background were used for the Colo-205 xenograft tumor model. In case of the breast cancer models, slow-releasing estrogen pellets (0.36 mg) had to be implanted. Mice were subcutaneously injected on the right flank with 50,000 (OMP-B34, OMP-B39, OMP-B44, PE13, and UM-T1) or 1×10^7 (Colo-205) viable cells, respectively, in a mixture of PBS (without magnesium or calcium) and Matrigel at a 1:1 ratio. The injected total volume per mouse was 200 μl with 50% being Matrigel. Once the tumor had reached a size between 65-200 mm^3, the mice were randomized. Antibodies were administered weekly and tumors measured twice weekly. LZ1 (a human antibody that recognizes lyzozyme) or 1B711 (a murine IgG1 antibody that recognizes the hapten trinitrophenol) was used as a control antibody for treatment of each tumor type. Tumor volume was calculated as described Al-Hajj et al. (2003). Data are expressed as the mean and the mean±S.E.M. Group means were compared using Student's two-tailed, unpaired t-test. […] All statistical analysis was performed using Microsoft EXCEL and Graph Pad PRISM.
In one embodiment, NOD/SCID mice were injected with PN8 pancreatic tumor cells. The tumors were allowed to grow for approximately 33 days until they had reached an average tumor volume of 150 mm^3. The mice were treated with gemcitabine at 20 mg/kg once per week for four weeks in combination with control antibody, anti-Notch2/3 antibody 59R1, or anti-Notch2/3 antibody 59R5.
Tumor volumes and p values for each experiment are shown relative to the control group. The PE13, C28 and Colo205 studies were carried out as described in Example 14. PN8 studies were carried out as described above. For the PN8 experiment, the control is gemcitabine alone and values for 59R1 and 59R5 are the combinations with gemcitabine. Antibodies were dosed once per week at 15 mg/kg for all experiments.

PE13 tumors = test: Microarray analysis of 59R1 and 59R5 treated PE13 tumors; type: in vivo, mice; settings: for Fold Foxc2 / Fold Gzma / Fold Hey2 / Fold Heyl / Fold Mmp9 / Fold Notch3 / Fold Pdcd1lg2 / Fold Rgs4 / Fold Rgs5: treated vs. control, mean of 3 animals per group
From the text: The numbers are mean differential expression values for treated vs. control animals, with 3 animals per group.

“59R1: human IgG2 antibody binding Notch2 and Notch3; heavy and light chain SEQ ID NO:16 and 18; ATCC PTA-9547” was tested, and the “FACS binding to mutant hNotch1 with EGF 10 residues mutated to hNotch2 residues 385-389” value [1] was “does bind”, the “PN8 Tumor vol relative to the control group” value [2] was 0.27 and the “PN8 pancreatic tumor growth relative to control antibody” value ([2]; established tumors, 15 mg/kg once a week) was “inhibit pancreatic tumor growth”. The “Fold Foxc2” value (PE13 tumors) was −5.10, the “Fold Gzma” value (PE13 tumors) was 7.42 and the “Fold Hey2” value (PE13 tumors) was −4.40. For the same substance, the “Fold Heyl” value (PE13 tumors) was −3.33, the “Fold Mmp9” value (PE13 tumors) was −1.92 and the “Fold Notch3” value (PE13 tumors) was −2.10. For the same substance, the “Fold Pdcd1lg2” value (PE13 tumors) was 2.36, the “Fold Rgs4” value (PE13 tumors) was −2.71 and the “Fold Rgs5” value (PE13 tumors) was −4.32.
“59R5: human antibody that specifically binds human Notch 2 and human Notch 3; heavy and light chain SEQ ID NO:49 and 18; ATCC PTA-10170” was tested, and the “FACS binding to mutant hNotch1 with EGF 10 residues mutated to hNotch2 residues 385-389” value [1] was “able to bind”, the “PN8 Tumor vol relative to the control group” value [2] was 0.11 and the “PN8 tumor growth, antibody in combination with gemcitabine” value ([2]; gemcitabine 20 mg/kg once per week for four weeks) was “inhibited tumor growth at a similar level as antibody 59R1”. For the same substance, the “Notch pathway as measured by gene expression (Foxc2, Hey2, Heyl, Notch3)” value (PE13 tumors; microarray, p<0.01) was “significantly inhibited the Notch pathway”, the “Fold Foxc2” value (PE13 tumors) was −3.00 and the “Fold Gzma” value (PE13 tumors) was 2.80. The “Fold Hey2” value (PE13 tumors) was −2.46, the “Fold Heyl” value (PE13 tumors) was −2.79 and the “Fold Mmp9” value (PE13 tumors) was −2.35. The “Fold Notch3” value (PE13 tumors) was −1.86, the “Fold Pdcd1lg2” value (PE13 tumors) was 4.97 and the “Fold Rgs4” value (PE13 tumors) was −2.90. The “Fold Rgs5” value (PE13 tumors) was −2.14.
